From US8513423B2 (Janssen Pharmaceutica, NV, priority 2010, dated 2013)
Where two headings read alike, the source gives them in different places.

Assays:
MGL = target: T1, MGL (Rattus norvegicus, UniProt Q8R431); experiment: 2-AG accumulation assay in rat brain homogenate; type: biochemical; details: compound @1 μM, read-out: Rat Brain 2AG % VehCntrl (%) @1 μM
T1 construct: one g rat brain was homogenized; from tissue; host or cells: rat brain homogenate
T1 sequence (Q8R431 1-303): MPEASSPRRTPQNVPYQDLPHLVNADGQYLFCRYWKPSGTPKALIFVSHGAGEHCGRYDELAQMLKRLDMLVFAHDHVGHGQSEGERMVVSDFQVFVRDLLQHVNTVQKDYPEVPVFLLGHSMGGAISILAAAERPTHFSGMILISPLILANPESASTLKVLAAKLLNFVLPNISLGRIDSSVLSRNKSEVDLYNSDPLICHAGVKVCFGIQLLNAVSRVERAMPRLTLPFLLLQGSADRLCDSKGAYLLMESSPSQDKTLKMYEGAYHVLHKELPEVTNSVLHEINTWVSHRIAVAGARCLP
In short: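 Inhibition of rat MGL was assessed by measuring 2-AG build-up in brain homogenate. After a 15-min preincubation at 37° C., 10 mM CaCl2 was added and the 5 mL reaction ran 15 min more at 37° C. It was quenched with 6 mL 2:1 chloroform/methanol, extracted 2-AG was measured by HPLC/MS, and accumulation with compound was expressed as a percentage of vehicle.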

mutant MGL = target: T2, mutant MGL (Homo sapiens, UniProt Q99685, L169S/L176S); experiment: MGL ThermoFluor assay - mutant; type: binding
T2 construct: purified mutant MGL (mut-MGLL 11-313 L179S L186S)
T2 sequence (Q99685 1-303 L169S/L176S): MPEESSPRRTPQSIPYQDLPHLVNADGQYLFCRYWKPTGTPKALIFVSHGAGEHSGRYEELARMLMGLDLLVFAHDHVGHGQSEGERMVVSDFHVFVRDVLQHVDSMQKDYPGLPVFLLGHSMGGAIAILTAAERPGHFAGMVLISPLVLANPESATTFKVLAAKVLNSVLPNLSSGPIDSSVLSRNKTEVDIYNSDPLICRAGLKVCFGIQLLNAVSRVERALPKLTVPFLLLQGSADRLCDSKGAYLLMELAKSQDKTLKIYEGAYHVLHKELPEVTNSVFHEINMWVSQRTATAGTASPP
In short: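 Thermal shift binding with 0.07 mg/ml L169S/L176S MGL, 100 μM 1,8-ANS, 200 mM NaCl, 0.001% Tween-20, 50 mM PIPES pH 7.0. Heated 40–90 °C at 1 °C/min, fluorescence (em 500 nm) tracked to give Tm; Kd fitted from 11-point concentration–Tm response, qKd when stocks quantified by qNMR.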

[1] = test system: CFA-induced paw radiant heat hypersensitivity; experiment: CFA-induced paw radiant heat hypersensitivity; type: in vivo; details: rat; 30 mg/kg, p.o.; last time point 300 min; group mean values, maximum % reversal at any time point
Protocol: Each rat was placed in a test chamber on a warm glass surface and allowed to acclimate for approximately 10 min. A radiant thermal stimulus (beam of light) was focused through the glass onto the plantar surface of each hind paw in turn. The thermal stimulus was automatically shut off by a photoelectric relay when the paw was moved or when the cut-off time was reached (20 sec for radiant heat at ˜5 amps). An initial (baseline) response latency to the thermal stimulus was recorded for each animal prior to the injection of complete Freund's adjuvant (CFA). Twenty-four hours following intraplantar CFA injection, the response latency of the animal to the thermal stimulus was re-evaluated and compared to the animal's baseline response time. […] Post-compound treatment withdrawal latency was assessed at fixed time intervals, typically 30, 60, 120, 180, and 300 min.
The percent reversal (% R) of hypersensitivity was calculated in one of two different ways: 1) using group mean values or 2) using individual animal values. […]
Method 1. For all compounds, the % R of hypersensitivity was calculated using the mean value for groups of animals at each time point according to the following formula: % reversal=[(group treatment response−group CFA response)/(group baseline response−group CFA response)]×100 Results are given for the maximum % reversal observed for each compound at any time point tested. […]

[2] = 0.07 mg/ml mutant MGL, pH=7.0, read-out: MGL mutant ThermoFluor Kd
[3] = compound concentration measured by qNMR, read-out: MGL mutant ThermoFluor qKd (using qNMR conc.)

2-AG accumulation, percent of vehicle control at 1 µM (MGL)	Kd (mutant MGL; [2])	Kd (mutant MGL; [3])	SMILES	Method 1: peak % reversal [1]
728%	1 nM	1.3 nM	Cc1c(C(=O)N2CC(C3CCN(C(=O)c4nccs4)CC3)C2)sc2cc(C(F)(F)F)ccc12 [Cpd 20, 4-(1-{[3-Methyl-6-(trifluoromethyl)-1-benzothiophen-2-yl]carbonyl}azetidin-3-yl)-1-(1,3-thiazol-2-ylcarbonyl)piperidine]	−6.7%
800%	0.3 nM	1.2 nM	O=C(c1nccs1)N1CCC(C2CN(C(=O)c3sc4cc(C(F)(F)F)ccc4c3Cl)C2)CC1 [Cpd 29, 4-(1-{[3-Chloro-6-(trifluoromethyl)-1-benzothiophen-2-yl]carbonyl}azetidin-3-yl)-1-(1,3-thiazol-2-ylcarbonyl)piperidine]	17.9%
